Results as given in patent publication US10961233B2 (LIFEARC, priority 2016, dated 2021).

Tests used:
[1] = system: LM2 and MDA-MB-231 breast cancer cell lines; experiment: PAICS 2D cell proliferation assay (CellTiter-Glo viability, 72 h); format: cell-based; conditions: Homo sapiens; 72 h incubation; cell line not given
Experimental: PAICS 2D Cell Proliferation Assay
Frozen cryovial stocks of LM2 and MDA-MB-231 breast cancer cell lines were thawed and cultured in 4.5 g/L glucose DMEM (31966-047, Invitrogen) supplemented with 10% Fetal Bovine Serum (10500-064, Invitrogen) until confluent in a T175 flask. Cells were incubated at 37° C. with 5% CO2 in a humidified incubator.
Cells were collected from T175 flasks by washing with PBS (10010-056, Invitrogen) and dissociated using Accutase (A6964, Sigma Aldrich). This was followed by centrifuging (1200 rpm, 5 min) and resuspending the cells in 10 ml of media containing 1% penicillin/streptomycin (15140-122, Invitrogen). Cells were counted by trypan blue exclusion method using an automated cell counter (Cellometer) and diluted to a concentration of 40,000/ml. 1000 cells were then seeded into 384-well white-walled plates (Corning, 3707) in a volume of 25 μl. Plates were Incubated overnight at 37° C. with 5% CO2.
After 24 hours, PAICS compounds were added onto the assay plates using an HP D300 Digital Dispenser (Hewlett Packard). 10 mM stocks were used and dispensed as a 10 point concentration response curve (CRC) ½ log dilution series with a final top concentration of 100 μM. Controls were added onto each plate: positive controls included Staurosporine CRC (100 μM stock dispensed as a 10 point CRC ½ log dilution series with a final top concentration of 1 μM) and PAICS compound MRT00211919 (10 mM stock dispensed as a 10 point CRC ½ log dilution series with a final top concentration of 100 μM); a high control of Staurosporine (0.1 μM (LM2), 0.316 μM (MDA-MB-231) FAC) and a low control of media containing 1% DMSO. A final concentration of 1% DMSO was then added across the plates for normalisation. Following compound addition, assay plates were incubated for 72 hours at 37° C. with 5% CO2.
Day 5—Cytotoxicity and Cell Viability Assays
After 72 h incubation, dead and viable cells were measured in each assay plate. Cytotoxicity was assessed through fluorescent DNA staining using the CellTox™ Green Cytotoxicity Assay kit (G8743, Promega) following the manufacturer's multiplexing protocol. Impaired cell membrane integrity results in the access of dye to stain DNA allowing quantification of dead cells. Cell viability was determined following ATP quantification using the CellTiter-Glo® Luminescent Cell Viability Assay kit (G7572, Promega) following the manufacturer's protocol. ATP released from lysed cells allowed for the generation of a signal proportional to the number of cells present in the well. All endpoint reads were performed using the PheraSTAR Plus (BMG Labtech). Data is expressed as % viable cells and % dead cells against controls (mean±SEM of duplicate curves).

WT full length PAICS = WT full length PAICS (Homo sapiens (Human), UniProt P22234); experiment: Biochemical assay to measure PAICS activity (Transcreener ADP2 FI); conditions: SAICAR synthetase reaction, ADP detection, 30 min pre-incubation
From the text: Biochemical Assay to Measure PAICS Activity
The biochemical assay was used to measure PAICS SAICAR synthetase-mediated conversion of CAIR, aspartic acid and ATP to SAICAR, ADP and inorganic phosphate (Pi), post-AIR/CAIR equilibration (see FIG. 3). This was achieved by detecting the ADP generated during the reaction, using Bellbrook Lab's Transcreener ADP^2 FI assay. An increase in the fluorescence intensity is directly proportional to the amount of PAICS activity.
The Transcreener ADP^2 FI assay is a homogeneous competitive displacement fluorescence intensity assay which uses direct immunodetection of ADP. Displacement of the tracer by ADP causes an increase in the fluorescence at excitation 590 nm and emission 617 nm (FIG. 3).
5 μl WT full length PAICS (final assay concentration, fac, 2.5 nM) in basic buffer, added to black, non-binding, 384-well plates (Corning #3575), columns 1 to 22. 5 μl basic buffer was added to columns 23+24 (negative control). PAICS stock at 31.9 μM from the PI's lab (Steve Firestine). Basic buffer contained 50 mM Tris-HCl pH8 and 0.5 mM EDTA, fac.
1 μl compound in 100% DMSO added per well, or 1 μl 100% DMSO to positive controls (columns 1+2) and negative controls (columns 23+24). Final assay top concentration of compound either 1 mM or 30-μM, serially diluted with half-log dilutions across the plate in duplicate (one 10-point concentration response curve across wells 3 to 12, another across 13 to 22). Compounds pre-incubated with PAICS enzyme for 30 mins at RT. 2 μl CAIR added (fac 10 μM) in basic buffer plus 25 mM MgCl2 and 50 mM KHCO3 fac to all wells. CAIR stock 50 mM from Steve Firestine's lab. 1 hr RT incubation for AIR-CAIR equilibration. NB: ˜50% CAIR is decarboxylated during equilibration therefore 5 μM remains for the synthetase reaction.
2 μl ATP/aspartic acid added (fac 30 μM/180 μM) in reaction buffer to all wells. 30 mins RT incubation for appropriate level of ATP turnover. Reaction buffer contained basic buffer plus 10 mM DTT, 0.01% BSA and 0.01% Brij 35, fac.
10 μl ADP detection reagent added to all wells (as per instructions, Transcreener ADP^2 FI kit, BellBrook Labs #3013-10K). Incubation for 1 h at RT to allow antibody equilibration. Fluorescence intensity determined using a Tecan Safire2 (excitation at 590 nm, emission at 617 nm).

Chain of WT full length PAICS (P22234 whole entry): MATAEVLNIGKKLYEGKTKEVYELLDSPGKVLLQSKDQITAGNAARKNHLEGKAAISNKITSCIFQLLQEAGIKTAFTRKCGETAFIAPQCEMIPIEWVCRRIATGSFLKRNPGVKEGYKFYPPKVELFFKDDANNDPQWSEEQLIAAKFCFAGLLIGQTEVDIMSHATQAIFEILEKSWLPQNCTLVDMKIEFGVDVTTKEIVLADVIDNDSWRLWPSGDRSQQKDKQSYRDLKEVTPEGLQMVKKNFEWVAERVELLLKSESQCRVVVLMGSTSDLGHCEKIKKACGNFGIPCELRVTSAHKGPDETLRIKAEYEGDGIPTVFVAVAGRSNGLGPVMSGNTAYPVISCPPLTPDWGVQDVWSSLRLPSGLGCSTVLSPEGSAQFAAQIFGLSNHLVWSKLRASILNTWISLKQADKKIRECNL

Compound	EC50 [1] [nM]	IC50 (WT full length PAICS) [nM]
CN1CCC(S(=O)(=O)N2CCN(c3ccc(Br)c(NC(=O)c4coc(N)n4)c3)CC2)CC1 [Example 85, 2-Amino-N-(2-bromo-5-{4-[(1-methylpiperidin-4-yl)sulfonyl]piperazin-1-yl}phenyl)-1,3-oxazole-4-carboxamide]	100 to 250	< 10
CN1CCC(NCCS(=O)(=O)N2CCN(c3ccc(Cl)c(NC(=O)c4coc(N)n4)c3)CC2)CC1 [Example 62, 2-Amino-N-{2-chloro-5-[4-({2-[(1-methylpiperidin-4-yl)amino]ethyl}sulfonyl)piperazin-1-yl]phenyl}-1,3-oxazole-4-carboxamide]	250 to 500	10 to 25
CCNCCCS(=O)(=O)N1CCN(c2ccc(Br)c(NC(=O)c3coc(N)n3)c2)CC1 [Example 70, 2-Amino-N-[2-bromo-5-(4-{[3-(ethylamino)propyl]sulfonyl}piperazin-1-yl)phenyl]-1,3-oxazole-4-carboxamide]	< 100	< 10
CC(C)NCCS(=O)(=O)N1CCN(c2ccc(Cl)c(NC(=O)c3coc(N)n3)c2)CC1 [Example 61, 2-Amino-N-[2-chloro-5-(4-{[2-(propan-2-ylamino)ethyl]sulfonyl}piperazin-1-yl)phenyl]-1,3-oxazole-4-carboxamide]	100 to 250	10 to 25
CNCCOC(=O)N1CCN(c2ccc(Cl)c(NC(=O)c3coc(N)n3)c2)CC1 [Example 31, 2-(Methylamino)ethyl 4-(3-{[(2-amino-1,3-oxazol-4-yl)carbonyl]amino}4-chlorophenyl)piperazine-1-carboxylate]	500 to 1000	25 to 100
CN(C)CCCOC(=O)N1CCN(c2ccc(Cl)c(NC(=O)c3coc(N)n3)c2)CC1 [Example 29, 3-(Dimethylamino)propyl 4-(3-{[(2-amino-1,3-oxazol-4-yl)carbonyl]amino}-4-chlorophenyl)piperazine-1-carboxylate]	500 to 1000	25 to 100
CN(C)CCCN1CCN(c2ccc(Cl)c(NC(=O)c3coc(N)n3)c2)CC1=O [Example 46, 2-Amino-N-(2-chloro-5-{4-[3-(dimethylamino)propyl]-3-oxopiperazin-1-yl}phenyl)-1,3-oxazole-4-carboxamide]	500 to 1000	> 100
CCCNCCS(=O)(=O)N1CCN(c2ccc(Cl)c(NC(=O)c3coc(N)n3)c2)CC1 [Example 66, 2-Amino-N-[2-chloro-5-(4-{[2-(propylamino)ethyl]sulfonyl}piperazin-1-yl)phenyl]-1,3-oxazole-4-carboxamide]	100 to 250	10 to 25
Nc1nc(C(=O)Nc2cc(N3CCN(S(=O)(=O)CCCN4CCCC4)CC3)ccc2Br)co1 [Example 67, 2-Amino-N-[2-bromo-5-(4-{[3-(pyrrolidin-1-yl)propyl]sulfonyl}piperazin-1-yl)phenyl]-1,3-oxazole-4-carboxamide]	< 100	< 10
Nc1nc(C(=O)Nc2cc(N3CCN(C(=O)OC4CCNC4)CC3)ccc2Cl)co1 (stereo not drawn) [Example 32, Pyrrolidin-3-yl 4-(3-{[(2-amino-1,3-oxazol-4-yl)carbonyl]amino}-4-chlorophenyl)piperazine-1-carboxylate]	500 to 1000	25 to 100
CC(C)NCCS(=O)(=O)N1CCN(c2ccc(Br)c(NC(=O)c3coc(N)n3)c2)CC1 [Example 63]	< 100	< 10
Nc1nc(C(=O)Nc2cc(N3CCN(S(=O)(=O)CCNC4CC4)CC3)ccc2Cl)co1 [Example 58, 2-Amino-N-[2-chloro-5-(4-{[2-(cyclopropylamino)ethyl]sulfonyl}piperazin-1-yl)phenyl]-1,3-oxazole-4-carboxamide]	500 to 1000	25 to 100
Nc1nc(C(=O)Nc2cc(N3CCN(C(=O)OCC4CNC4)CC3)ccc2Cl)co1 [Example 19, Azetidin-3-ylmethyl 4-(3-(2-aminooxazole-4-carboxamido)-4-chlorophenyl) piperazine-1-carboxylate]	500 to 1000	> 100
Nc1nc(C(=O)Nc2cc(N3CCN(C(=O)OCCNC4CC4)CC3)ccc2Br)co1 [Example 21, 2-(Cyclopropylamino)ethyl 4-(3-{[(2-amino-1,3-oxazol-4-yl)carbonyl]amino}-4-bromophenyl)piperazine-1-carboxylate]	100 to 250	10 to 25
Nc1nc(C(=O)Nc2cc(N3CCN(C(=O)OCCNC4CC4)CC3)ccc2Cl)co1 [Example 35, 2-(Cyclopropylamino)ethyl 4-(3-{[(2-amino-1,3-oxazol-4-yl)carbonyl]amino}-4-chlorophenyl)piperazine-1-carboxylate]	500 to 1000	25 to 100
CN1CC(OC(=O)N2CCN(c3ccc(Cl)c(NC(=O)c4coc(N)n4)c3)CC2)C1 [Example 34, 1-Methylazetidin-3-yl 4-(3-{[(2-amino-1,3-oxazol-4-yl)carbonyl]amino}-4-chlorophenyl)piperazine-1-carboxylate]	500 to 1000	25 to 100
CNCCCS(=O)(=O)N1CCN(c2ccc(Br)c(NC(=O)c3coc(N)n3)c2)CC1 [Example 75, 2-Amino-N-[2-bromo-5-(4-{[3-(methylamino)propyl]sulfonyl}piperazin-1-yl)phenyl]-1,3-oxazole-4-carboxamide]	100 to 250	< 10
CN1CCN(CCS(=O)(=O)N2CCN(c3ccc(Cl)c(NC(=O)c4coc(N)n4)c3)CC2)CC1 [Example 59, 2-Amino-N-[2-chloro-5-(4-{[2-(4-methylpiperazin-1-yl)ethyl]sulfonyl}piperazin-1-yl)phenyl]-1,3-oxazole-4-carboxamide]	250 to 500	10 to 25
CNCCCS(=O)(=O)N1CCN(c2ccc(Cl)c(NC(=O)c3coc(N)n3)c2)CC1 [Example 73, 2-Amino-N-[2-chloro-5-(4-{[3-(methylamino)propyl]sulfonyl}piperazin-1-yl)phenyl]-1,3-oxazole-4-carboxamide]	250 to 500	10 to 25
CC(C)NCCCS(=O)(=O)N1CCN(c2ccc(Br)c(NC(=O)c3coc(N)n3)c2)CC1 [Example 76, 2-Amino-N-[2-bromo-5-(4-{[3-(propan-2-ylamino)propyl]sulfonyl}piperazin-1-yl)phenyl]-1,3-oxazole-4-carboxamide]	< 100	< 10
NCCS(=O)(=O)N1CCN(c2ccc(Cl)c(NC(=O)c3coc(N)n3)c2)CC1 [Example 53, 2-Amino-N-(5-(4-(2-aminoethylsulfonyl)piperazin-1-yl)-2-chlorophenyl) oxazole-4-carboxamide]	500 to 1000	25 to 100
